Results as given in ChEMBL document CHEMBL3886598, “Pyrazolyl-pyrimidine derivatives as kinase inhibitors” (2016).

Assays:
[1] = target: Tyrosine-protein kinase JAK2 (Homo sapiens, UniProt O60674); assay: JAK2 Enzymatic Assay: The assay has been performed using the commercial available JAK2 kinase domain (Invitrogen, Eugene, Oreg.). […] The JAK2 kinase assay was run with a final enzyme concentration of 1 nM, in the presence of 60 uM ATP, 3 nM 33P-γ-ATP and 64 uM of substrate BioDBn*306 (Aminoacid sequence: LPLDKDYYWREPGQ⿿SEQ ID NO: 1). The peptidic substrate was purchased from American Peptide Company (Sunnyvale, Calif.). Specific JAK2, JAK1 or JAK3 peptide substrates are trans-phosphorylated by JAKs kinase in the presence of ATP traced with 33P-γ-ATP. At the end of the phosphorylation reaction, the unreacted ATP, cold and radioactive, is captured by an excess of Dowex ion exchange resin that eventually settles by gravity to the bottom of the reaction plate. The supernatant is subsequently withdrawn and transferred into a counting plate that is then evaluated by […].
[2] = target: T1, Tyrosine-protein kinase JAK3 (Homo sapiens, UniProt P52333); assay: JAK3 Enzymatic Assay: The assay has been performed using the JAK3 kinase domain (residues 781-1124 of the 1124 amino acid long full-length sequence, accession number P52333 of UniProtKB/Swiss-Prot databse). […] The JAK3 kinase assay was run with a final enzyme concentration of 1 nM, in the presence of 22 uM ATP, 1 nM 33P-γ-ATP and 40 uM of substrate BioDBn*306 (Amino acid sequence: LPLDKDYYWREPGQ-SEQ ID NO: 1). The peptidic substrate was purchased from American Peptide Company (Sunnyvale, Calif.).
T1 sequence (P52333 whole entry): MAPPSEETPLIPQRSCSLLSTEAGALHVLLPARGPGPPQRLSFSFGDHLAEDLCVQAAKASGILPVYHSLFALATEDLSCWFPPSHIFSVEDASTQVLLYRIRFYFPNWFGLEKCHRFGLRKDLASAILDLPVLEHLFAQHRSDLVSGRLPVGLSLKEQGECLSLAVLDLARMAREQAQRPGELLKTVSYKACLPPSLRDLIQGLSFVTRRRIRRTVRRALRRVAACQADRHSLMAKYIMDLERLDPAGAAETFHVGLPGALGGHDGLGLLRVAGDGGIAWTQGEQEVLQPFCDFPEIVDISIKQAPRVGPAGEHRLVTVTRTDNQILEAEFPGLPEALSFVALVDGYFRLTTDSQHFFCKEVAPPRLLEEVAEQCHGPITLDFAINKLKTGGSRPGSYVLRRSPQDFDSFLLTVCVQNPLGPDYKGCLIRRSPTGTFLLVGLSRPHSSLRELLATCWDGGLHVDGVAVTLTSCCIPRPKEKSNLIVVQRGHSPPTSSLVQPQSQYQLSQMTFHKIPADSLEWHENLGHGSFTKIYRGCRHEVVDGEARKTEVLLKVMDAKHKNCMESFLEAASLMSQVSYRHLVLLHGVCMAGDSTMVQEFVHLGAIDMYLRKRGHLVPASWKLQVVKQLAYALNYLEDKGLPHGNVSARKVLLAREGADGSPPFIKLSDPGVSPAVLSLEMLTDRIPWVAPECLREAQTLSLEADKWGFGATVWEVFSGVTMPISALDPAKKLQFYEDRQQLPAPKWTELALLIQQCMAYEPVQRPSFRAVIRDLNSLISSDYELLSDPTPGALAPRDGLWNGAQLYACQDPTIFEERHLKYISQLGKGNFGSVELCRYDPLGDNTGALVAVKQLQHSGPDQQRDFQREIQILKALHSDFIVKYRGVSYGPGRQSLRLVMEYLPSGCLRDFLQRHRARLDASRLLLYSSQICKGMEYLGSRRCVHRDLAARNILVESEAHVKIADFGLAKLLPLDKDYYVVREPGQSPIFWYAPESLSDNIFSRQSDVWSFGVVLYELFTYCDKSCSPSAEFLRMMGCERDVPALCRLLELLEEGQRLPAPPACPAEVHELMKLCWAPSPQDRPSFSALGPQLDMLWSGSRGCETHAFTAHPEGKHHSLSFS

Chain of Tyrosine-protein kinase JAK2 (O60674 whole entry, the tested form may be a part): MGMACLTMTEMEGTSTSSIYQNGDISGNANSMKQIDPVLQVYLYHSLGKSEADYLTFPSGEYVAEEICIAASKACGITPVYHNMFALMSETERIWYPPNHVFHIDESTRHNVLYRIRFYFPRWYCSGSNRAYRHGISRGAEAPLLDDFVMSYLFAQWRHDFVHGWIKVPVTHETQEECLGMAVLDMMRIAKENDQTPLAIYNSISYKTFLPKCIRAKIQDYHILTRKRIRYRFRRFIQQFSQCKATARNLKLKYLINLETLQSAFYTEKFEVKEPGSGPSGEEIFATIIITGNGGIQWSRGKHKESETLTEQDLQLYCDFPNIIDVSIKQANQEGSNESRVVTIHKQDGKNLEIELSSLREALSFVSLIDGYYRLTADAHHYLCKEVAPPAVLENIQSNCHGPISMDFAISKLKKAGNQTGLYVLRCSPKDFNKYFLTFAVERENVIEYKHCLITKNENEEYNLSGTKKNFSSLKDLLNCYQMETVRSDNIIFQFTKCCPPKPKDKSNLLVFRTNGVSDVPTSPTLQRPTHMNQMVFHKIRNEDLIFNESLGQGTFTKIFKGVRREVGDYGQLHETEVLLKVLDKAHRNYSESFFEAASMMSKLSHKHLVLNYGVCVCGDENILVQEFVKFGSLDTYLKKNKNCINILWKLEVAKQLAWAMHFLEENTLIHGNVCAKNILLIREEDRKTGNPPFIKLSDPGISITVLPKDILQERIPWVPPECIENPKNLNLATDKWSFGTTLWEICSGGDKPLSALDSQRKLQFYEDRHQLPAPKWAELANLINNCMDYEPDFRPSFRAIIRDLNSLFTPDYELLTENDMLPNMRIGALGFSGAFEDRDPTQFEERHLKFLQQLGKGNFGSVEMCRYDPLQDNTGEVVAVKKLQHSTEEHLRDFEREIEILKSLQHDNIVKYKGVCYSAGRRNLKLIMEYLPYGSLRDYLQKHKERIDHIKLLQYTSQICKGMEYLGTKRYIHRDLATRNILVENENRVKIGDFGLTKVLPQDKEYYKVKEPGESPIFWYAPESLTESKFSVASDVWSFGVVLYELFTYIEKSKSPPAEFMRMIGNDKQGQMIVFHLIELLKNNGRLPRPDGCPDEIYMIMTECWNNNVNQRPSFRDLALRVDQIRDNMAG

For `CCc1ccc(Cl)cc1-n1nc(-c2ccnc(N)n2)cc1C(N)=O`, the IC50 [1] was less than 5 µM and the IC50 [2] was less than 5 µM.
